Laboratory results taken from publication PMC3920740 (Biopolymers, 2013).
Where a SMILES comes first, the peptide text is derived from it. The star is where a group is joined. Acetyl(1-pyrenyl) = O=C(Cc1ccc2ccc3cccc4ccc1c2c34)*; Acetyl(2-naphthyl) = O=C(Cc1ccc2ccccc2c1)*

Tests used:
MMP-9 [1] = assay: Digestion of peptides by MMP-9; assay type: in vitro ADME; details: MMP-9 (10 U) in Tris-HCl buffer, pH 7.5
MMP-9 [2] = assay: Tris-HCl buffer; details: 37 °C, up to 72 h

cleaved bond (MMP-9 [2]) | Compound | remaining at 72 h, 500 μM (MMP-9 [1]) [%]
– | CC(C)C[C@H](NC(=O)CNC(=O)[C@H](CC(C)C)NC(=O)[C@@H]1CCCN1C(=O)CNC(=O)[C@H](Cc1ccccc1)NC(=O)[C@H](Cc1ccccc1)NC(=O)Cc1ccc2ccccc2c1)C(=O)N[C@@H](CCCNC(=N)N)C(=O)N[C@@H](CO)C(=O)N[C@@H](CCCCN)C(=O)O [3a] ({Acetyl(2-naphthyl)}-FFGPLGLRSK-OH; N-terminus assumed) | 41
– | CC(C)C[C@H](NC(=O)[C@H](CO)NC(=O)[C@H](CC(C)C)NC(=O)[C@@H]1CCCN1C(=O)Cc1ccc2ccc3cccc4ccc1c2c34)C(=O)N[C@@H](CCCNC(=N)N)C(=O)N[C@@H](CO)C(=O)N[C@@H](CCCCN)C(=O)O [4c] ({Acetyl(1-pyrenyl)}-PLSLRSK-OH; N-terminus assumed) | 18
L-R, major | PLGLRSK | –
L-R, major | PLSLRSK | –
